The numbers were not newly measured in patent US9872864B2, “Sustained release composition of prostacyclin” (priority 2011, dated 2018), which cites them from elsewhere.

Molecules are shown by their SMILES.

For the series the following is noted: background statement.

What is called half-life is the time needed for the level to fall by half in the phase considered. For the compound `CCCCC[C@H](O)CC[C@@H]1[C@H]2Cc3cccc(OCC(=O)O)c3C[C@H]2C[C@H]1O` [treprostinil], the half-life is 4 h.
